As a reminder, the pIC50 is the negative decadic logarithm of the IC50, by convention in mol/L. Read a high pIC50 as a small IC50.

57 molecules from patent US11685732B2, “MYST family histone acetyltransferase inhibitors” (Epizyme, Inc., priority 2017, dated 2023) can be followed below.

pIC50: −log10 of the molar value.

Sequence of KAT-6A (Q92794 other isoform, or with tags, fused parts or gaps): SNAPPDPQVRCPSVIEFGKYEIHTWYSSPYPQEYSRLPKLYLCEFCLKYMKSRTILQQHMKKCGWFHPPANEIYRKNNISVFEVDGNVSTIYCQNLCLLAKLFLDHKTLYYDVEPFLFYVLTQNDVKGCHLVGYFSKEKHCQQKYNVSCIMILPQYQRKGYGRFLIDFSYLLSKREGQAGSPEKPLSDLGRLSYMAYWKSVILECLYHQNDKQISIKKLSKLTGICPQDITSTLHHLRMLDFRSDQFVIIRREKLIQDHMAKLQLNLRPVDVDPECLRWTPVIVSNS
Sequence of KAT-5 (Q92993 other isoform, or with tags, fused parts or gaps): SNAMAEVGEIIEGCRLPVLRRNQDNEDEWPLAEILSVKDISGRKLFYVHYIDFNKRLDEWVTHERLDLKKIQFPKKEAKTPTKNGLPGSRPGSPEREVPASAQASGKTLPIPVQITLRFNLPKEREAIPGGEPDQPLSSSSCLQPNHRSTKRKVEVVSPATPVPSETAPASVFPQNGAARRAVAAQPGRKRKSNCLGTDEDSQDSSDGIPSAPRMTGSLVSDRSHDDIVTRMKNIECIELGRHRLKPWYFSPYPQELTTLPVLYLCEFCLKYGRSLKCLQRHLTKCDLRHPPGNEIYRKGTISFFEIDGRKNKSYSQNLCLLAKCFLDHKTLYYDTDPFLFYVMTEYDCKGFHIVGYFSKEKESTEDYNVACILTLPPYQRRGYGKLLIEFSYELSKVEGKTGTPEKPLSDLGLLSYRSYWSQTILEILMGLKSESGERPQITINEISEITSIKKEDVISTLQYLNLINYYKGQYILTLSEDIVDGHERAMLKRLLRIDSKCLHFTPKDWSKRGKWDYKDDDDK

The first assay concerns the target KAT-5 (Homo sapiens (Human), UniProt Q92993). The experiment in a line: KAT-5 biochemical inhibition assay (SAMDI mass spectrometry).
Details: not given
Here is the method: (§1) KAT-5. Enzyme assay buffer was 50 mM Tris pH 8.0, 0.002% Tween20, 0.005% bovine skin gelatin, and 1 mM dithiothreitol (DTT). For determination of IC50 values, compounds were serially diluted with 2% (v/v) DMSO in the final reaction, pre-incubating each dilution of each compound with 40 μL of assay buffer containing KAT-5 enzyme (9 nM final concentration). 10 μL of assay buffer containing 1 μM peptide substrate and 0.5 μM acetyl coenzyme A (final concentrations) was added. Reactions (50 μL total) were then carried out at 25° C. for 90 minutes. Reactions were terminated by the addition of 0.5% formic acid (final concentration), and a sample of each reaction was analyzed by SAMDI Tech, Inc. (Chicago, Ill.) using self-assembled monolayer desorption/ionization time-of-flight mass spectrometry (Mrksich, M. (2008) Mass spectrometry of self-assembled monolayers: a new tool for molecular surface science. ACS Nano 2, 7-18).
`COc1ccc(S(=O)(=O)NNC(=O)c2cc(-c3cn(C)cn3)cc(Cl)c2F)c(F)c1OCc1ccccc1` [Compound I-462] had a negative-log IC50 (pIC50) of 4.30 to 5.00.

The assay is the same for the next values; noted with them: Table 5.
The molecule `Cc1cccc(-c2cc(Cl)c(F)c(C(=O)NNS(=O)(=O)CC3CN(C)CCO3)c2)c1` (stereo not drawn) [Compound A-11] had a pIC50 of at least 5.00.
For `Cc1cccc(-c2cc(Cl)c(F)c(C(=O)NNS(=O)(=O)CCCN(C)Cc3ccccc3)c2)c1` [Compound A-18], the pIC50 was under 4.00.

Another assay addresses KAT-6A (Homo sapiens (Human), UniProt Q92794). The experiment in a line: KAT-6A biochemical inhibition assay (SAMDI mass spectrometry).
Details: not given
How it is done:
as §1, with “KAT-6A. Enzyme” for “KAT-5. Enzyme”, “containing KAT-6A” for “containing KAT-5”, “enzyme (12.5” for “enzyme (9”, “and 1” for “and 0.5”
The molecule `COc1cc(F)c(S(=O)(=O)NNC(=O)c2cc(-c3cn(C)cn3)cc(Cl)c2F)c(F)c1` [Compound I-421] had a pIC50 of over 5.00.
On the same count and under the same terms, for `CNCCOc1ccc(S(=O)(=O)NNC(=O)c2cc(-c3cn(C)cn3)cc(Cl)c2F)cc1` [Compound I-422] the value was under 4.00; for `Cn1cnc(-c2cc(Cl)c(F)c(C(=O)NNS(=O)(=O)c3ccc(F)cc3F)c2)c1` [Compound I-423], over 5.00.
Molecule `CCN1CC(CS(=O)(=O)NNC(=O)c2cc(-c3cn(C)cn3)cc(Cl)c2F)CCC1=O` (stereo not drawn) [Compound I-424] showed a pIC50 of 4.30 to 5.00.
Still for that read-out and setting: with `CCN(C)C(=O)N(C)C1CC(CS(=O)(=O)NNC(=O)c2cc(-c3cn(C)cn3)cc(Cl)c2F)C1` (stereo not drawn) [Compound I-425] the figure was 4.00 to 4.30; with `COc1ccc(S(=O)(=O)NNC(=O)c2cc(-c3cn(C)cn3)cc(Cl)c2F)c(Cl)c1` [Compound I-426], 4.30 to 5.00; with `Cn1cnc(-c2cc(Cl)c(F)c(C(=O)NNS(=O)(=O)C3CCC4CCC3C4)c2)c1` (stereo not drawn) [Compound I-427], 4.30 to 5.00.
`CCNC(=O)N(C)C1CC(CS(=O)(=O)NNC(=O)c2cc(-c3cn(C)cn3)cc(Cl)c2F)C1` (stereo not drawn) [Compound I-428] gave a negative logarithm of the IC50 (pIC50) of over 5.00.
For the molecule `Cn1cnc(-c2cc(Cl)c(F)c(C(=O)NNS(=O)(=O)c3cccc(O)c3)c2)c1` [Compound I-429], the pIC50 is over 5.00.
Take `Cn1cnc(-c2cc(Cl)c(F)c(C(=O)NNS(=O)(=O)c3cccnc3O)c2)c1` [Compound I-430]: the pIC50 was 4.30 to 5.00.
Same read-out and setting: for `Cn1cnc(-c2cc(Cl)c(F)c(C(=O)NNS(=O)(=O)CC3CCN(CC(F)(F)F)CC3)c2)c1` [Compound I-431] the value was 4.30 to 5.00.
As for `CN(C)CCOc1cccc(S(=O)(=O)NNC(=O)c2cc(-c3cn(C)cn3)cc(Cl)c2F)c1` [Compound I-432], the pIC50 was over 5.00.
Take `CO[C@H]1CCCC[C@@H]1CS(=O)(=O)NNC(=O)c1cc(-c2cn(C)cn2)cc(Cl)c1F` [Compound I-434]: the pIC50 was over 5.00.
For `CO[C@@H]1CCCC[C@@H]1CS(=O)(=O)NNC(=O)c1cc(-c2cn(C)cn2)cc(Cl)c1F` [Compound I-435], the pIC50 is over 5.00.
Molecule `COCCc1cn(Cc2ccc(OC)cc2)cc1-c1cc(Cl)c(F)c(C(=O)NNS(=O)(=O)CC2CCOCC2)c1` [Compound I-436] showed a pIC50 of under 4.00.
On the same count and under the same terms, for `Cn1cnc(-c2cc(Cl)c(F)c(C(=O)NNS(=O)(=O)CC3CCCN(CC(F)(F)F)C3)c2)c1` (stereo not drawn) [Compound I-437] the value was 4.30 to 5.00; for `Cn1cnc(-c2cc(Cl)c(F)c(C(=O)NNS(=O)(=O)c3ccc(Cl)cc3F)c2)c1` [Compound I-438], over 5.00; for `CC(C)Oc1ccc(S(=O)(=O)NNC(=O)c2cc(-c3cn(C)cn3)cc(Cl)c2F)c(F)c1` [Compound I-439], over 5.00.
`COCCOc1ccc(S(=O)(=O)NNC(=O)c2cc(-c3cn(C)cn3)cc(Cl)c2F)c(F)c1` [Compound I-440] had a negative logarithm of the IC50 (pIC50) of over 5.00.
In the case of `CCOc1ccc(S(=O)(=O)NNC(=O)c2cc(-c3cn(C)cn3)cc(Cl)c2F)c(F)c1` [Compound I-441], the negative logarithm of the IC50 (pIC50) is over 5.00.
The molecule `Cn1cnc(-c2cc(Cl)c(F)c(C(=O)NNS(=O)(=O)c3cccc(OCc4ccccc4)c3F)c2)c1` [Compound I-442] had a pIC50 of over 5.00.
In the case of `Cn1cnc(-c2cc(C(=O)NNS(=O)(=O)CC3CCCCC3)c(F)c(Cl)c2C#N)c1` [Compound I-443], the pIC50 is under 4.00.
`Cn1cnc(-c2cc(Cl)c(F)c(C(=O)NNS(=O)(=O)c3cccc(O)c3F)c2)c1` [Compound I-444] gave a pIC50 of over 5.00.
In turn, `Cn1cnc(-c2cc(Cl)c(F)c(C(=O)NNS(=O)(=O)C3CCN(CC(F)(F)F)CC3)c2)c1` [Compound I-445] showed a negative-log IC50 (pIC50) of 4.30 to 5.00.
Consider `CC([C@H]1CC[C@@H](NC(=O)OC(C)(C)C)CC1)S(=O)(=O)NNC(=O)c1cc(-c2cn(C)cn2)cc(Cl)c1F` (stereo partly drawn) [Compound I-446], for which the negative logarithm of the IC50 (pIC50) was over 5.00.
As to `CC([C@H]1CC[C@H](NC(=O)OC(C)(C)C)CC1)S(=O)(=O)NNC(=O)c1cc(-c2cn(C)cn2)cc(Cl)c1F` (stereo partly drawn) [Compound I-447], the pIC50 is over 5.00.
`CC([C@H]1CC[C@@H](N)CC1)S(=O)(=O)NNC(=O)c1cc(-c2cn(C)cn2)cc(Cl)c1F` (stereo partly drawn) [Compound I-448] showed a pIC50 of under 4.00.
For `CC([C@H]1CC[C@H](N)CC1)S(=O)(=O)NNC(=O)c1cc(-c2cn(C)cn2)cc(Cl)c1F` (stereo partly drawn) [Compound I-449], the pIC50 is under 4.00.
Still for that read-out and setting: for `Cn1cnc(-c2cc(Cl)c(F)c(C(=O)NNS(=O)(=O)c3cc(OCc4ccccc4)ccc3F)c2)c1` [Compound I-450] the value was over 5.00.
Molecule `COc1cc(F)c(S(=O)(=O)NNC(=O)c2cc(-c3cn(C)cn3)cc(Cl)c2F)cc1OCc1ccccc1` [Compound I-451] showed a pIC50 of 4.30 to 5.00.
With `Cn1cnc(-c2cc(Cl)c(F)c(C(=O)NNS(=O)(=O)C3CCN(CC(F)(F)F)C3)c2)c1` (stereo not drawn) [Compound I-452], the pIC50 was 4.30 to 5.00.
For the molecule `Cn1cnc(-c2cc(Cl)c(F)c(C(=O)NNS(=O)(=O)c3cc(O)ccc3F)c2)c1` [Compound I-453], the pIC50 is over 5.00.
For the molecule `CCNC(=O)N[C@H]1CC[C@@H](C(C)S(=O)(=O)NNC(=O)c2cc(-c3cn(C)cn3)cc(Cl)c2F)CC1` (stereo partly drawn) [Compound I-454], the pIC50 was over 5.00.
In the case of `CCNC(=O)N[C@H]1CC[C@H](C(C)S(=O)(=O)NNC(=O)c2cc(-c3cn(C)cn3)cc(Cl)c2F)CC1` (stereo partly drawn) [Compound I-455], the pIC50 was 4.30 to 5.00.
Consider `Cn1cnc(-c2cc(Cl)c(F)c(C(=O)NNS(=O)(=O)C3CCCN(CC(F)(F)F)C3)c2)c1` (stereo not drawn) [Compound I-456], for which the pIC50 is 4.30 to 5.00.
`COc1ccc(S(=O)(=O)NNC(=O)c2cc(-c3cn(C)cn3)cc(Cl)c2F)cc1OCc1ccccc1` [Compound I-457] had a negative logarithm of the IC50 (pIC50) of 4.30 to 5.00.
For the molecule `COc1cc(F)c(S(=O)(=O)NNC(=O)c2cc(-c3cn(C)cn3)cc(Cl)c2F)cc1O` [Compound I-458], the pIC50 is over 5.00.
The same measure, in the same setting: for `COc1ccc(S(=O)(=O)NNC(=O)c2cc(-c3cn(C)cn3)cc(Cl)c2F)cc1O` [Compound I-459] the value was over 5.00; for `Cn1cnc(-c2cc(Cl)c(F)c(C(=O)NNS(=O)(=O)CC3CC3)c2)c1` [Compound I-460], 4.30 to 5.00; for `COCCOC1CCCC(CS(=O)(=O)NNC(=O)c2cc(-c3cn(C)cn3)cc(Cl)c2F)C1` (stereo not drawn) [Compound I-461], over 5.00.
`COc1ccc(S(=O)(=O)NNC(=O)c2cc(-c3cn(C)cn3)cc(Cl)c2F)c(F)c1OCc1ccccc1` [Compound I-462] gave a pIC50 of 4.30 to 5.00.
The molecule `COCCOC1CCC(CS(=O)(=O)NNC(=O)c2cc(-c3cn(C)cn3)cc(Cl)c2F)CC1` (stereo not drawn) [Compound I-463] gave a pIC50 of over 5.00.
Molecule `COc1cnc(Cl)c(S(=O)(=O)NNC(=O)c2cc(-c3cn(C)cn3)cc(Cl)c2F)c1` [Compound I-464] showed a pIC50 of over 5.00.
On to `COc1ccc(S(=O)(=O)NNC(=O)c2cc(-c3cn(C)cn3)cc(Cl)c2F)c(F)c1O` [Compound I-465], for which the pIC50 was over 5.00.
Still for that read-out and setting: for `Cn1cnc(-c2cc(Cl)c(F)c(C(=O)NNS(=O)(=O)C[C@H]3CC[C@H](NCC(F)(F)F)CC3)c2)c1` [Compound I-466] the value was over 5.00.

Still in this assay, the particulars now being: Table 5.
`Cc1c(-c2ccccc2)ccc(F)c1C(=O)NNS(=O)(=O)c1ccc(Cl)cc1` [Compound A-1] had a pIC50 of 4.30 to 5.00.
The molecule `Cc1cccc(-c2cc(C)c(F)c(C(=O)NNS(=O)(=O)CC3CCN(C(=O)OC(C)(C)C)C3)c2)c1` (stereo not drawn) [Compound A-2] had a pIC50 of under 4.00.
In turn, `Cc1cccc(-c2cc(C)c(F)c(C(=O)NNS(=O)(=O)CC3CCNC3)c2)c1` (stereo not drawn) [Compound A-3] showed a pIC50 of under 4.00.
In the case of `Cc1cccc(-c2cc(Cl)c(F)c(C(=O)NNS(=O)(=O)CC3CN(C(=O)OC(C)(C)C)CCO3)c2)c1` (stereo not drawn) [Compound A-4], the negative logarithm of the IC50 (pIC50) is at least 5.00.
`Cc1cccc(-c2cc(Cl)c(F)c(C(=O)NNS(=O)(=O)CC3CNCCO3)c2)c1` (stereo not drawn) [Compound A-5]: the pIC50 is 4.30 to 5.00.
The molecule `Cc1cccc(-c2cc(C)c(F)c(C(=O)NNS(=O)(=O)CC3CCCNC3)c2)c1` (stereo not drawn) [Compound A-6] had a pIC50 of under 4.00.
Molecule `Cc1cccc(-c2cc(Cl)c(F)c(C(=O)NNS(=O)(=O)C[C@H]3CCCNC3)c2)c1` [Compound A-7] showed a pIC50 of under 4.00.
On the same count and under the same terms, for `Cc1cccc(-c2cc(Cl)c(F)c(C(=O)NNS(=O)(=O)CC3CCCN(C)C3)c2)c1` (stereo not drawn) [Compound A-8] the value was under 4.00.
Consider `CCN1CCCC(CS(=O)(=O)NNC(=O)c2cc(-c3cccc(C)c3)cc(Cl)c2F)C1` (stereo not drawn) [Compound A-9], for which the pIC50 was under 4.00.
In the case of `Cc1cccc(-c2cc(Cl)c(F)c(C(=O)NNS(=O)(=O)C[C@@H]3CCCNC3)c2)c1` [Compound A-10], the pIC50 is under 4.00.
For `Cc1cccc(-c2cc(Cl)c(F)c(C(=O)NNS(=O)(=O)CC3CN(C)CCO3)c2)c1` (stereo not drawn) [Compound A-11], the pIC50 was at least 5.00.
Turning to `Cc1cccc(-c2cc(Cl)c(F)c(C(=O)NNS(=O)(=O)CCCN(C)Cc3ccccc3)c2)c1` [Compound A-18], the pIC50 is under 4.00.
